Assay results reported in BindingDB's records for doi:10.1016/j.bmcl.2009.01.098 (Glaxosmithkline, 2009).

Target: Muscarinic acetylcholine receptor M3 (Homo sapiens, UniProt P20309)
Assay: Antagonist activity at human recombinant muscarinic M3 receptor expressed in CHO cells assessed as inhibition of acetylcholine-induced calcium mobilization by FLIPR based single concentration kinetic assay

Chain of Muscarinic acetylcholine receptor M3 (P20309 whole entry): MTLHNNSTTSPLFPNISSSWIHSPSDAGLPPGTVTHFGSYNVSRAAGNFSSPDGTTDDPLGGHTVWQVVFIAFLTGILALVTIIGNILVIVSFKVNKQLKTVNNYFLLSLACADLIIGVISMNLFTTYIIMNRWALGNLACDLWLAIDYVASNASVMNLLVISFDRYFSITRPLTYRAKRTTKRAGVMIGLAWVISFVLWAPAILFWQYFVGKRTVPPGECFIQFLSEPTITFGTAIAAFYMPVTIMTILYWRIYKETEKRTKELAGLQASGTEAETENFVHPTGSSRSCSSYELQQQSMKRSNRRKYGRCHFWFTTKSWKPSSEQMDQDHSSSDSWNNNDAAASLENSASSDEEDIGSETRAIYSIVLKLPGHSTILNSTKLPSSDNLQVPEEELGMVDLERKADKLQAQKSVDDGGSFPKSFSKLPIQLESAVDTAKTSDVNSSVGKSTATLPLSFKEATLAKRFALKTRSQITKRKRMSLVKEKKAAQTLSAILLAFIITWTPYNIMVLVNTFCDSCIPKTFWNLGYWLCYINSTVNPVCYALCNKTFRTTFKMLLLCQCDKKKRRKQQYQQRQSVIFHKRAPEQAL

Compound	Kd
CC1CN(Cc2cccc(-c3cc(CNC(=O)c4cccc(CN(C)CCCN(C)C)c4)ccc3F)c2)CCN1 (stereo not drawn)	200 pM
CC1CN(Cc2cccc(-c3cc(CNC(=O)c4cccc(CN5CCCCC5)c4)ccc3F)c2)CCN1 (stereo not drawn)	631 pM
CC1CN(Cc2cccc(-c3cc(CNC(=O)c4cccc(CN5CCOCC5)c4)ccc3F)c2)CCN1 (stereo not drawn)	126 pM
CC1CN(Cc2cccc(-c3cc(CNC(=O)c4cccc(CN(C)C)c4)ccc3F)c2)CCN1 (stereo not drawn)	3160 pM
CC1CN(Cc2cccc(-c3cc(CNC(=O)c4cccc(CN5CCCN(C)CC5)c4)ccc3F)c2)CCN1 (stereo not drawn)	251 pM

These reach a lower Kd. Values come first.

Kd	Compound
79.4 pM	CC1CN(Cc2cccc(-c3cc(CNC(=O)c4cccc(CN5CCN(C=O)CC5)c4)ccc3F)c2)CCN1 (stereo not drawn)
63.1 pM	CC1CN(Cc2cccc(-c3cc(CNC(=O)c4cccc(CN5CCN(CCCO)CC5)c4)ccc3F)c2)CCN1 (stereo not drawn)
31.6 pM	CC1CN(Cc2cccc(-c3cc(CNC(=O)c4cccc(CN5CCN(C)CC5)c4)ccc3F)c2)CCN1 (stereo not drawn)
